Source: paper PMC5011342, “A high throughput drug screening assay to identify compounds that promote oligodendrocyte differentiation using acutely dissociated and purified oligodendrocyte precursor cells” (BMC Research Notes, 2016)
Read-outs that look alike come from different tables or passages of the source.

Assays:
[1] = system: acutely dissociated and purified rat OPCs; test: Acute OL differentiation assay (MBP expression/cell, immunofluorescent image quantification); format: cell-based; conditions: sheet "All OLga data"
How it was run: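 This acute differentiation assay used purified rat OPCs from postnatal day 6–7 pups, seeded into PDL/laminin-coated 96-well plates in differentiation medium lacking PDGF and FGF. Compounds were applied in quadruplicate after a 1–2 h preincubation at 37 °C, 10 % CO2, with 0.1 % DMSO negative and 40 ng/ml T3 positive controls in eight wells. After fixation on DIV4, anti-MBP immunofluorescence images yielded MBP expression/cell.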

expanded OPCs = test: cells; conditions: for viability at 0.1 µM / viability at 1 µM / viability at 10 µM: Rattus norvegicus, 72 h; for 0.1 µM (% DMSO) / 1 µM (% DMSO) / 10 µM (% DMSO): alamarBlue viability of expanded OPCs; for 0.1 µM (% DMSO): compound at 0.1 µM; for 1 µM (% DMSO): compound at 1 µM; for 10 µM (% DMSO): compound at 10 µM
Description: Having established a consistent assay for measuring OL differentiation in vitro, the next step was to utilize this assay to assess the ability of a wide array of compounds to promote OL differentiation. Prior to library screening, we first established the maximum non-toxic dose of each compound in the library. […] Therefore, we added each compound in the NIH clinical collection (NCC) library to OPCs at 10, 1, and 0.1 µM concentrations. Three days later, we assessed viability of the treated cells by measuring AlamarBlue fluorescence, a measure of cell viability (see “Methods” section). […] Appropriately, we established three sets of screening concentrations for library compounds: non-toxic compounds were tested at 10 and 2 µM, slightly toxic compounds (only toxic at 10 µM) were tested at 2 and 0.4 µM, and very toxic compounds were tested at 0.4 and 0.08 µM.
OPCs were expanded in vitro by seeding into PDL-coated tissue culture flasks at 1000–2000 cells/cm^2 in differentiation media supplemented with 10 ng/ml PDGF-AA. Proliferating OPCs were fed every 2–3 days and supplemented with 2–3× concentration of PDGF as needed to prevent OPC differentiation. After 6–7 days of proliferation, OPCs were harvested by trypsinization, plated into PDL-coated 96-well Falcon plates and centrifuged at 200×g to facilitate cell attachment, survival, and even distribution of cells. Expanded OPCs were seeded in differentiation media at 10,000 cells/well and incubated for 2 h at 37 °C, 10 % CO2 prior to addition of compounds. The NCC library was diluted and added to cells at 10, 1, and 0.1 µM; each concentration was tested in quadruplicate. As a positive control for the induction of toxicity, 5 ng/ml tunicamycin was added to 8 wells in each plate. Three days later, a 1:10 dilution of alamarBlue® (AB) was added to each well and cells were incubated 4 h at 37 °C, 10 % CO2. AB fluorescence was measured using a PerkinElmer Victor II fluorescence microplate reader (PerkinElmer, Waltham, MA) with 560 nm excitation/590 nm emission filters. For library screening, the highest concentration of each compound was adjusted to a minimally toxic concentration based on this toxicity data. Compounds were additionally tested at a second concentration that was 1/5th of the top concentration. The final concentration of DMSO in each well was 0.1 %.

[2] = Rattus norvegicus, 2 uM test compound, relative to quetiapine, read-out: OL differentiation, 2 uM (% Quet)
[3] = Rattus norvegicus, 10 uM test compound, relative to quetiapine, read-out: OL differentiation, 10 uM (% Quet)
[4] = read-out: 0.1 µM (% DMSO), alamarBlue viability of expanded OPCs, compound at 0.1 µM, sheet All Tox data
[5] = read-out: 1 µM (% DMSO), alamarBlue viability of expanded OPCs, compound at 1 µM, sheet All Tox data
[6] = read-out: 10 µM (% DMSO), alamarBlue viability of expanded OPCs, compound at 10 µM, sheet All Tox data
[7] = Rattus norvegicus, test compound at 2 uM, NCC library screen, relative to quetiapine, read-out: 2 uM (% Quet)
[8] = Rattus norvegicus, test compound at 10 uM, NCC library screen, relative to quetiapine, read-out: 10 uM (% Quet)
[9] = read-out: 0.1 µM (% DMSO), alamarBlue viability, NCC library compound at 0.1 µM, sheet "All Tox data"
[10] = read-out: 1 µM (% DMSO), alamarBlue viability, NCC library compound at 1 µM, sheet "All Tox data"
[11] = read-out: 10 µM (% DMSO), alamarBlue viability, NCC library compound at 10 µM, sheet "All Tox data"
[12] = Rattus norvegicus, test compound at 2 uM, MBP expression relative to quetiapine, NCC library screen, read-out: 2 uM (% Quet)
[13] = Rattus norvegicus, test compound at 10 uM, MBP expression relative to quetiapine, NCC library screen, read-out: 10 uM (% Quet)

Row | SMILES | activation at 2 µM [1, 2] [%] | activation at 10 µM [1, 3] [%] | activation at 2 µM [1, 7] [%] | activation at 10 µM [1, 8] [%] | viability at 0.1 µM (expanded OPCs; [9]) [%] | viability at 1 µM (expanded OPCs; [10]) [%] | viability at 10 µM (expanded OPCs; [11]) [%] | other results
1 | Cc1nnc2n1-c1ccc(Cl)cc1C(c1ccccc1)=NC2 [Alprazolam] | -12.2 | -116 | – | – | – | – | – | viability at 0.1 µM (expanded OPCs; [4]): 102%; viability at 1 µM (expanded OPCs; [5]): 115%; viability at 10 µM (expanded OPCs; [6]): 139%
2 | CCCCC[C@H](O)/C=C/[C@H]1[C@H](O)CC(=O)[C@@H]1CCCCCCC(=O)O [Alprostadil] | – | – | -7.2 | -67.6 | 84.4 | 85.6 | 81.6 | –
3 | O=C(c1ccc(F)cc1)C1CCN(CCn2c(=S)[nH]c3ccccc3c2=O)CC1 [Altanserin] | -4 | -10 | – | – | 107 | 94.1 | 56 | –
4 | CN(C)c1nc(N(C)C)nc(N(C)C)n1 [Altretamine] | – | – | -1.1 | -13.9 | 94.2 | 87.4 | 85 | –
5 | NC12CC3CC(CC(C3)C1)C2 [Amantadine] | – | – | -21.4 | -19.9 | – | – | – | 0.1 µM (% DMSO) (expanded OPCs; relative to DMSO control): 89.6 % DMSO; 1 µM (% DMSO) (expanded OPCs; relative to DMSO control): 86.9 % DMSO; 10 µM (% DMSO) (expanded OPCs; relative to DMSO control): 77.6 % DMSO
6 | CC(=O)OCC(=O)[C@@]12OC3(CCCC3)O[C@@H]1C[C@H]1[C@@H]3CCC4=CC(=O)C=C[C@]4(C)[C@@]3(F)[C@@H](O)C[C@@]12C [Amcinonide] | – | – | – | – | – | – | – | activation at 2 µM [1, 12]: 18.1%; activation at 10 µM [1, 13]: -10.2%; 0.1 µM (% DMSO) (expanded OPCs; relative to DMSO control): 113.8 % DMSO; 1 µM (% DMSO) (expanded OPCs; relative to DMSO control): 123.7 % DMSO; 10 µM (% DMSO) (expanded OPCs; relative to DMSO control): 114.6 % DMSO
7 | CC1(C)S[C@@H]2[C@H](/N=C/N3CCCCCC3)C(=O)N2[C@H]1C(=O)O [Amdinocillin] | -15.6 | 5.8 | – | – | – | – | – | viability at 0.1 µM (expanded OPCs; [4]): 89.7%; viability at 1 µM (expanded OPCs; [5]): 98.8%; viability at 10 µM (expanded OPCs; [6]): 102%
8 | N=C(N)NC(=O)c1nc(Cl)c(N)nc1N [Amiloride] | -5.9 | -0.4 | – | – | – | – | – | viability at 0.1 µM (expanded OPCs; [4]): 82.2%; viability at 1 µM (expanded OPCs; [5]): 83.7%; viability at 10 µM (expanded OPCs; [6]): 90.8%
9 | CCC1(c2ccc(N)cc2)CCC(=O)NC1=O (centres unmarked) [Aminoglutethimide] | – | – | – | – | – | – | – | activation at 2 µM [1, 12]: -11%; activation at 10 µM [1, 13]: -7.7%; 0.1 µM (% DMSO) (expanded OPCs; relative to DMSO control): 94.4 % DMSO; 1 µM (% DMSO) (expanded OPCs; relative to DMSO control): 89.6 % DMSO; 10 µM (% DMSO) (expanded OPCs; relative to DMSO control): 84.0 % DMSO
10 | NCC(=O)CCC(=O)O [Aminolevulinic Acid] | – | – | 5.1 | -16.1 | 96 | 86.7 | 73.4 | –
11 | CCCCc1oc2ccccc2c1C(=O)c1cc(I)c(OCCN(CC)CC)c(I)c1 [Amiodarone] | – | – | – | – | 74.9 | 8.8 | 8.6 | activation at 0.08 µM ([1]; Rattus norvegicus, test compound at 0.08 uM, NCC library screen, relative to quetiapine, read-out: 0.08 uM (% Quet)): 44.2%
12 | Nc1c2c(nc3c1CCC3)CCCC2 [Amiridine] | – | – | – | – | – | – | – | OL differentiation, 2 uM (% Quet) ([1]; 2 uM test compound, relative to quetiapine): 7.6 % Quet; OL differentiation, 10 uM (% Quet) ([1]; 10 uM test compound, relative to quetiapine): 34.5 % Quet; 0.1 µM (% DMSO) (expanded OPCs; sheet All Tox data): 87.3 % DMSO; 1 µM (% DMSO) (expanded OPCs; sheet All Tox data): 86.4 % DMSO; 10 µM (% DMSO) (expanded OPCs; sheet All Tox data): 89.5 % DMSO
